Experimental data taken from patent publication US20050234066A1, “Alpha substituted carboxylic acids” (Agouron Pharmaceuticals, Inc., priority 2004, published 2005).
Where two headings read alike, the source gives them in different places.

Key:
[1] = biological target: T1, PPAR-α (Homo sapiens, UniProt Q07869); test: Scintillation Proximity Assay (SPA), displacement of 3H labeled GW2331; type: binding; conditions: 3H GW2331 displacement
T1 sequence (Q07869 1-468): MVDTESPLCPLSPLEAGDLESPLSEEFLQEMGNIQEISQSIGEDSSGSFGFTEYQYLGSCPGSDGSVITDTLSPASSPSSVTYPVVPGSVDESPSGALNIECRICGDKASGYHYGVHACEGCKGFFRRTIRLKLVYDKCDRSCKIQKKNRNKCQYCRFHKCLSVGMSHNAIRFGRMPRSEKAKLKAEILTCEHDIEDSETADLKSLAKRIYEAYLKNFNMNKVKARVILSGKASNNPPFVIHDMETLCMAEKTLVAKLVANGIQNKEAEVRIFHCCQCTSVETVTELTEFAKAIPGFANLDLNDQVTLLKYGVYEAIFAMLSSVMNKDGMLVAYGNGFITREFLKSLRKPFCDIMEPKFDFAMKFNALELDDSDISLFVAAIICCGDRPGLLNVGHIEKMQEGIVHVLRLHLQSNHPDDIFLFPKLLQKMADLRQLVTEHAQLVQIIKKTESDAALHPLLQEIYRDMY
Description: (§1) Scintillatian Proximity Assay (SPA) Assays
(§2) In the SPA assay, 3H labeled darglitazone (for PPAR-γ) or GW2331 (for PPAR-α) is bound to the PPAR protein captured on SPA polylysine beads and generates radioactive count signal that can be detected by TopCounts (Packard). The PPAR-bound 3H labeled ligand can be displaced by an unlabeled compound. The Ki of the compound can be then determined by the extent of displacement at various compound concentrations. Reagents: • SPA polylysine beads, which can be purchased from Amersham Bioscience. • H labeled Darglitazone for PPAR-γ. • H labeled GW2331 for PPAR-α. • PPAR proteins. • Buffer—PBS, 10% glycerol, 14 mM beta-mercaptoethanol.

[2] = biological target: T2, PPAR-γ (Homo sapiens, UniProt P37231); test: Scintillation Proximity Assay (SPA), displacement of 3H labeled darglitazone; type: binding; conditions: 3H darglitazone displacement
T2 sequence (P37231 1-505): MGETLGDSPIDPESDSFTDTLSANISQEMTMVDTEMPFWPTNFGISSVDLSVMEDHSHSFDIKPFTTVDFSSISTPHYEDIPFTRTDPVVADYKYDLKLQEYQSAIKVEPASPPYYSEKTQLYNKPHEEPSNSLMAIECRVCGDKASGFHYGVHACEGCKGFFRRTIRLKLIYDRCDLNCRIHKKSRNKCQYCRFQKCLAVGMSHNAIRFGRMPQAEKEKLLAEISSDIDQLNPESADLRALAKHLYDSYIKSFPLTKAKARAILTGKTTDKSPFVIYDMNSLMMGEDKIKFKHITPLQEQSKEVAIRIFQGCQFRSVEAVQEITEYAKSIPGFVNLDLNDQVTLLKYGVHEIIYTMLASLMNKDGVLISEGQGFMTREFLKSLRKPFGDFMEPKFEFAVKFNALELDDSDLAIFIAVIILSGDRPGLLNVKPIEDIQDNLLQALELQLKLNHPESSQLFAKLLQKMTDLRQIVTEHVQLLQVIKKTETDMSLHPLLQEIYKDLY
Description: as §1, §2

Row | Structure (SMILES) | Ki ([1]; read-out: PPAR-alpha Ki) | Ki ([2]; read-out: PPAR-gamma Ki) | Ki ([1]; PPAR-alpha Ki) | Ki ([2]; PPAR-gamma Ki)
1 | Cc1oc(-c2ccccc2)nc1CCOC(=O)NCc1ccc(OC(C)(C)C(=O)O)cc1F [Example B-09] | 2200 nM | 1900 nM |  | 
2 | CC(C)(Oc1cccc(CNC(=O)OCc2cccc(Oc3ccccc3)c2)c1)C(=O)O [Example B-10] | 190 nM | 170 nM |  | 
3 | CCC(Oc1cccc(CNC(=O)OCc2ccc(OCc3ccccc3)cn2)c1)C(=O)O (centres unmarked) [Example B-11] | 960 nM | 7900 nM |  | 
4 | CCC(Oc1cccc(CNC(=O)OCc2nc(-c3ccccc3)oc2C)c1)C(=O)O (centres unmarked) [Example B-14] | 21 nM | 2300 nM |  | 
5 | Cc1oc(-c2ccccc2)nc1CCCOC(=O)NCc1cccc(OC2(C(=O)O)CCC2)c1 [Example B-16] | 84 nM | 1800 nM |  | 
6 | Cc1oc(-c2ccccc2)nc1CCCOC(=O)NCc1cccc(OC(C)(C)C(=O)O)c1 [Example B-19] | 340 nM | 740 nM |  | 
7 | Cc1oc(-c2ccccc2)nc1CCNC(=O)OCc1cccc(OC(C)(C)C(=O)O)c1 [Example B-21] | 4000 nM | 990 nM |  | 
8 | CCOC(Cc1cccc(CNC(=O)OCc2nc(-c3ccccc3)oc2C)c1)C(=O)O (centres unmarked) [Example B-22] | 460 nM | 150 nM |  | 
9 | CCOC(Cc1cccc(CNC(=O)OCCCc2nc(-c3ccccc3)oc2C)c1)C(=O)O (centres unmarked) [Example B-23] | 2700 nM | 3400 nM |  | 
10 | CCOC(Cc1cccc(CNC(=O)OCCc2nc(-c3ccccc3)oc2C)c1)C(=O)O (centres unmarked) [Example B-24] | 1000 nM | 1600 nM |  | 
11 | COc1ccc(-c2ccc(CCOc3ccc(CC4(C(=O)O)CCC4)cc3)cc2)cc1 [Example C-06, 1-{4-[2-(4′-methoxy-1,1′-biphenyl-4-yl)ethoxy]benzyl}cyclobutanecarboxylic acid] | 41000 nM | 9500 nM |  | 
12 | O=C(O)C1(Cc2ccc(OCCc3ccc(-c4ccc(F)cc4)cc3)cc2)CCC1 [Example C-07] | 22000 nM | 11000 nM |  | 
13 | O=C(O)C1(Cc2ccc(OCCc3ccc(-c4cccc(OC(F)(F)F)c4)cc3)cc2)CCC1 [Example C-09] | 4600 nM | 1400 nM |  | 
14 | COc1ccc(-c2ccc(CCOc3ccc(CC4(C(=O)O)CCC4)cc3)cc2)cn1 [Example C-10] | 19000 nM | 2100 nM |  | 
15 | CS(=O)(=O)c1ccc(-c2ccc(CCOc3ccc(CC4(C(=O)O)CCC4)cc3)cc2)cc1 [Example C-11] | 25000 nM | 2000 nM |  | 
16 | O=C(O)C1(Cc2ccc(OCCc3ccc(-c4ccc5c(c4)OCC5)cc3)cc2)CCC1 [Example C-12] | 9400 nM | 1600 nM |  | 
17 | Cc1oc(-c2ccccc2)nc1C/C=C/c1ccc(OC2(C(=O)O)CCC2)cc1 [Example C-14] | 3200 nM | 8000 nM |  | 
18 | Cc1oc(-c2ccccc2)nc1CCCc1ccc(OC2(C(=O)O)CCC2)cc1 [Example C-15] | 3200 nM | 14000 nM |  | 
19 | Cc1oc(-c2ccccc2)nc1COc1ccc(CC2(C(=O)O)CCC2)cc1 [Example C-17] | 3200 nM | 26000 nM |  | 
20 | Cc1oc(-c2ccccc2)nc1CCOc1cccc(CC2(C(=O)O)CCC2)c1 [Example C-18] | 65 nM | 3500 nM |  | 
21 | Cc1oc(-c2cccc(N(C)C)c2)nc1CCOc1ccc(CC2(C(=O)O)CCC2)cc1 [Example C-21] | 66 nM | 53 nM |  | 
22 | Cc1oc(-c2ccccc2C#N)nc1CCOc1ccc(CC2(C(=O)O)CCC2)cc1 [Example C-22] | 2100 nM | 800 nM |  | 
23 | Cc1oc(-c2ccc(C(N)=O)cc2)nc1CCOc1ccc(CC2(C(=O)O)CCC2)cc1 [Example C-23] | 2500 nM | 190 nM |  | 
24 | Cc1oc(-c2ccc(C(F)(F)F)c(F)c2)nc1CCOc1ccc(CC2(C(=O)O)CCC2)cc1 [Example C-24] | 22 nM | 83 nM |  | 
25 | Cc1oc(-c2ccc(Cl)c(Cl)c2)nc1CCOc1ccc(CC2(C(=O)O)CCC2)cc1 [Example C-25] | 18 nM | 66 nM |  | 

Row | Structure (SMILES) | Ki ([1]; read-out: PPAR-alpha Ki) | Ki ([2]; read-out: PPAR-gamma Ki) | Ki ([1]; PPAR-alpha Ki) | Ki ([2]; PPAR-gamma Ki)
26 | Cc1ccc(-c2nc(CCOc3ccc(CC4(C(=O)O)CCC4)cc3)c(C)o2)cc1 [Example C-26] | 16 nM | 68 nM |  | 
27 | Cc1oc(-c2ccc(Cl)cc2)nc1CCOc1ccc(CC2(C(=O)O)CCC2)cc1 [Example C-27] | 15 nM | 26 nM |  | 
28 | COc1cccc(-c2nc(CCOc3ccc(CC4(C(=O)O)CCC4)cc3)c(C)o2)c1 [Example C-29] | 120 nM | 6 nM |  | 
29 | Cc1oc(-c2cccc(C(F)(F)F)c2)nc1CCOc1ccc(CC2(C(=O)O)CCC2)cc1 [Example C-30] | 110 nM | 33 nM |  | 
30 | Cc1oc(-c2cccc(Cl)c2)nc1CCOc1ccc(CC2(C(=O)O)CCC2)cc1 [Example C-31] | 93 nM | 26 nM |  | 
31 | Cc1cccc(-c2nc(CCOc3ccc(CC4(C(=O)O)CCC4)cc3)c(C)o2)c1 [Example C-32] | 150 nM | 35 nM |  | 
32 | Cc1oc(-c2ccc(C(F)(F)F)cc2)nc1CCOc1ccc(CC2(C(=O)O)CCC2)cc1 [Example C-33] | 10 nM | 50 nM |  | 
33 | O=C(O)C1(Oc2ccc(OCc3nc(-c4ccccc4)oc3-c3ccccc3)cc2)CCC1 [Example C-36] | 21000 nM | 1700 nM |  | 
34 | Cc1oc(-c2ccccc2)nc1CCOc1ccc(OC2(C(=O)O)CCC2)cc1 [Example C-40] | 700 nM | 3700 nM |  | 
35 | Cc1oc(-c2ccccc2)nc1COc1ccc(OC2(C(=O)O)CCC2)cc1 [Example C-42] | 13000 nM | 33000 nM |  | 
36 | CCOC(c1ccc(OCCc2nc(-c3ccccc3)oc2C)nc1)C1(C(=O)O)CCC1 (centres unmarked) [Example C-45] | 7700 nM | 220 nM |  | 
37 | Cc1oc(-c2ccccc2)nc1CCOc1ccc(CC2(C(=O)O)CCCC2)cn1 [Example C-46] | 3500 nM | 2000 nM |  | 
38 | Cc1cccc(-c2nc(CCOc3ccc(CC4(C(=O)O)CCCO4)nc3)c(C)o2)c1 (centres unmarked) [Example C-50] | 1100 nM | 43 nM |  | 
39 | Cc1sc(-c2ccccc2)nc1CCOc1ccc(CC2(C(=O)O)CCCO2)nc1 (centres unmarked) [Example C-51] | 2900 nM | 180 nM |  | 
40 | Cc1oc(-c2ccc(Cl)cc2)nc1CCOc1ccc(CC2(C(=O)O)CCCO2)nc1 (centres unmarked) [Example C-52] | 150 nM | 300 nM |  | 
41 | COc1ccc(-c2nc(CCOc3ccc(CC4(C(=O)O)CCCO4)nc3)c(C)o2)cc1 (centres unmarked) [Example C-53] | 640 nM | 93 nM |  | 
42 | COc1cccc(-c2nc(CCOc3ccc(CC4(C(=O)O)CCCO4)nc3)c(C)o2)c1 (centres unmarked) [Example C-54] |  |  | 1200 nM | 20 nM
43 | Cc1oc(-c2ccccc2)nc1CCOc1ccc(CC2(C(=O)O)CCCCO2)nc1 (centres unmarked) [Example C-57] | 1800 nM | 1100 nM |  | 
44 | Cc1oc(-c2ccc(C#N)cc2)nc1CCOc1ccc(CC2(C(=O)O)CCCO2)cn1 (centres unmarked) [Example C-61] | 240 nM | 310 nM |  | 
45 | CN(CCOc1ccc(CC2(C(=O)O)CCCO2)cn1)c1nc2ccccc2o1 (centres unmarked) [Example C-69] | 2500 nM | 1100 nM |  | 
46 | Cc1oc(-c2ccccc2)nc1CCCc1ccc(CC2(C(=O)O)CCCO2)cn1 (centres unmarked) [Example C-74] | 900 nM | 640 nM |  | 
47 | Cc1oc(-c2ccccc2)nc1CCOc1ncc(CC2(C(=O)O)CCCO2)cn1 (centres unmarked) [Example C-76] | 7300 nM | 2300 nM |  | 
48 | Cc1oc(-c2ccccc2)nc1CCOc1cnc(CC2(C(=O)O)CCCO2)cn1 (centres unmarked) [Example C-77] | 2900 nM |  |  | 150 nM
49 | Cc1oc(-c2ccccc2)nc1CCOc1ccc(CC2(C(=O)O)CCCO2)cc1 (centres unmarked) [Example C-78] | 15 nM | 6 nM |  | 
